{
  "source": "patent US20200399262A1",
  "about": "“COMPOUNDS FOR INHIBITING PROTEIN DEGRADATION AND METHODS OF USE THEREOF IN THE TREATMENT OF CANCER” (PI Therapeutics Ltd, priority 2018, published 2020)",
  "assay_in_all_cases": "Cell viability panel, ATPlite 1Step",
  "format_in_all_cases": "cell-based",
  "key": {"DoTc2 4510": {"test_system": "DoTc2 4510", "settings": "Homo sapiens, Cervical carcinoma, 72 h exposure, read-out: Compound EC50", "protocol": "(§1) Cell viability panel studies. Cells were diluted in the corresponding ATCC recommended medium and dispensed in a 384-well plate, depending on the cell line used, at a density of 200-6400 cells per well. For each used cell line, the optimal cell density was used. Compound was serially diluted and 8 concentration (0.04-32 μM) were added to the cells for 72 h exposure. At t=end, of ATPlite 1Step™ (PerkinElmer) were used to calculate cell viability. Cell lines marked with asterisk were seeded 24 h prior to treatment in 96-well plates at the density range of 5,000-40,000 cells/well, according to duplication rate, in RPMI 1640 medium containing 10% fetal bovine serum and 2 mM L-glutamine. Compounds were diluted from 10 mM DMSO stock and treatment was applied at the range of 0.04-1 μM. Following incubation at 37° C. for 48 hours with increasing concentrations of the compounds, viability was determined with CyQUANT® Direct Assay Kit (Invitrogen). Output intensities were normalized to values after treatment with DMSO alone, and EC50 values were calculated using the absorbance measurements [time zero, (Tz), growth control, (C), plus the test growth at the four drug concentration levels (Ti)] as follows: [(Ti−Tz)/(C−Tz)]×100 for concentrations for which Ti>/=Tz; [(Ti−Tz)/Tz]×100 for concentrations for which Ti−<Tz."}, "Hs 766T": {"test_system": "Hs 766T", "settings": "Hs766T, Pancreatic adenocarcinoma, 72 h exposure, read-out: Compound EC50", "protocol": "as §1"}, "HCT 116": {"test_system": "HCT 116", "settings": "Homo sapiens, Colon carcinoma, 72 h exposure, read-out: Compound EC50", "protocol": "as §1"}, "K-562": {"test_system": "K-562", "settings": "Homo sapiens, K562, Chronic myelogenous leukemia, 72 h exposure, read-out: Compound EC50", "protocol": "as §1"}, "ES-2": {"test_system": "ES-2", "settings": "Homo sapiens, Ovarian clear cell adenocarcinoma, 72 h exposure, read-out: Compound EC50", "protocol": "as §1"}, "G-361": {"test_system": "G-361", "settings": "Homo sapiens, Melanoma, 72 h exposure, read-out: Compound EC50", "protocol": "as §1"}, "RS4-11": {"test_system": "RS4-11", "settings": "Homo sapiens, B acute lymphoblastic leukemia, 72 h exposure, read-out: Compound EC50", "protocol": "as §1"}, "KG-1": {"test_system": "KG-1", "settings": "Homo sapiens, Acute myeloid leukemia, 72 h exposure, read-out: Compound EC50", "protocol": "as §1"}, "Hs 746T": {"test_system": "Hs 746T", "settings": "Homo sapiens, Hs746T, Gastric adenocarcinoma, 72 h exposure, read-out: Compound EC50", "protocol": "as §1"}, "SW837": {"test_system": "SW837", "settings": "Homo sapiens, Rectal adenocarcinoma, 72 h exposure, read-out: Compound EC50", "protocol": "as §1"}, "PC-3": {"test_system": "PC-3", "settings": "Homo sapiens, Prostate carcinoma, 72 h exposure, read-out: Compound EC50", "protocol": "as §1"}, "HuTu 80": {"test_system": "HuTu 80", "settings": "Homo sapiens, HuTu80, Duodenal adenocarcinoma, 72 h exposure, read-out: Compound EC50", "protocol": "as §1"}, "A388": {"test_system": "A388", "settings": "Squamous cell carcinoma, 72 h exposure, read-out: Compound EC50", "protocol": "as §1"}, "J82": {"test_system": "J82", "settings": "Homo sapiens, Bladder carcinoma, 72 h exposure, read-out: Compound EC50", "protocol": "as §1"}, "SW620": {"test_system": "SW620", "settings": "Homo sapiens, SW-620, Colon adenocarcinoma, 72 h exposure, read-out: Compound EC50", "protocol": "as §1"}, "MOLT-4": {"test_system": "MOLT-4", "settings": "Homo sapiens, T acute lymphoblastic leukemia, 72 h exposure, read-out: Compound EC50", "protocol": "as §1"}, "HL-60": {"test_system": "HL-60", "settings": "Homo sapiens, Acute myeloid leukemia, 72 h exposure, read-out: Compound EC50", "protocol": "as §1"}, "PFSK-1": {"test_system": "PFSK-1", "settings": "Homo sapiens, Primitive neuroectodermal tumor, 72 h exposure, read-out: Compound EC50", "protocol": "as §1"}, "HT-1080": {"test_system": "HT-1080", "settings": "Homo sapiens, Fibrosarcoma, 72 h exposure, read-out: Compound EC50", "protocol": "as §1"}, "CAL 27": {"test_system": "CAL 27", "settings": "Homo sapiens, Tongue squamous cell carcinoma, 72 h exposure, read-out: Compound EC50", "protocol": "as §1"}, "DU4475": {"test_system": "DU4475", "settings": "Homo sapiens, DU-4475, Breast carcinoma, 72 h exposure, read-out: Compound EC50", "protocol": "as §1"}, "RPMI-7951": {"test_system": "RPMI-7951", "settings": "Homo sapiens, Melanoma, 72 h exposure, read-out: Compound EC50", "protocol": "as §1"}, "SU-DHL-6": {"test_system": "SU-DHL-6", "settings": "Homo sapiens, Diffuse large B-cell lymphoma, 72 h exposure, read-out: Compound EC50", "protocol": "as §1"}, "SW480": {"test_system": "SW480", "settings": "Homo sapiens, Colon adenocarcinoma, 72 h exposure, read-out: Compound EC50", "protocol": "as §1"}, "MCF7": {"test_system": "MCF7", "settings": "Homo sapiens, Invasive ductal carcinoma, 72 h exposure, read-out: Compound EC50", "protocol": "as §1"}, "RL95-2": {"test_system": "RL95-2", "settings": "Homo sapiens, Endometrial adenosquamous carcinoma, 72 h exposure, read-out: Compound EC50", "protocol": "as §1"}, "A-498": {"test_system": "A-498", "settings": "Homo sapiens, A498, Renal cell carcinoma, 72 h exposure, read-out: Compound EC50", "protocol": "as §1"}, "5637": {"test_system": "5637", "settings": "Bladder carcinoma, 72 h exposure, read-out: Compound EC50", "protocol": "as §1"}, "BxPC-3": {"test_system": "BxPC-3", "settings": "Homo sapiens, Pancreatic ductal adenocarcinoma, 72 h exposure, read-out: Compound EC50", "protocol": "as §1"}},
  "data": [
    {"smiles": "CN(C)CCCS(=O)(=O)N1C/C(=C\\c2ccc(C#N)cc2)C(=O)/C(=C/c2ccc(C#N)cc2)C1", "note": "[Compound AA]", "values": [
      {"measurement": "EC50", "setting": "DoTc2 4510", "result": "< 300", "unit": "nM"},
      {"measurement": "EC50", "setting": "Hs 766T", "result": "300 to 1000", "unit": "nM"},
      {"measurement": "EC50", "setting": "HCT 116", "result": "< 300", "unit": "nM"},
      {"measurement": "EC50", "setting": "K-562", "result": "< 300", "unit": "nM"},
      {"measurement": "EC50", "setting": "ES-2", "result": "< 300", "unit": "nM"},
      {"measurement": "EC50", "setting": "G-361", "result": "< 300", "unit": "nM"},
      {"measurement": "EC50", "setting": "RS4-11", "result": "< 300", "unit": "nM"},
      {"measurement": "EC50", "setting": "KG-1", "result": "< 300", "unit": "nM"},
      {"measurement": "EC50", "setting": "Hs 746T", "result": "< 300", "unit": "nM"},
      {"measurement": "EC50", "setting": "SW837", "result": "300 to 1000", "unit": "nM"},
      {"measurement": "EC50", "setting": "PC-3", "result": "300 to 1000", "unit": "nM"},
      {"measurement": "EC50", "setting": "HuTu 80", "result": "< 300", "unit": "nM"},
      {"measurement": "EC50", "setting": "A388", "result": "< 300", "unit": "nM"},
      {"measurement": "EC50", "setting": "J82", "result": "300 to 1000", "unit": "nM"},
      {"measurement": "EC50", "setting": "SW620", "result": "< 300", "unit": "nM"},
      {"measurement": "EC50", "setting": "MOLT-4", "result": "< 300", "unit": "nM"},
      {"measurement": "EC50", "setting": "HL-60", "result": "< 300", "unit": "nM"},
      {"measurement": "EC50", "setting": "PFSK-1", "result": "< 300", "unit": "nM"},
      {"measurement": "EC50", "setting": "HT-1080", "result": "< 300", "unit": "nM"},
      {"measurement": "EC50", "setting": "CAL 27", "result": "< 300", "unit": "nM"},
      {"measurement": "EC50", "setting": "DU4475", "result": "300 to 1000", "unit": "nM"},
      {"measurement": "EC50", "setting": "RPMI-7951", "result": "< 300", "unit": "nM"},
      {"measurement": "EC50", "setting": "SU-DHL-6", "result": "< 300", "unit": "nM"},
      {"measurement": "EC50", "setting": "SW480", "result": "< 300", "unit": "nM"},
      {"measurement": "EC50", "setting": "MCF7", "result": "≥ 1000", "unit": "nM"},
      {"measurement": "EC50", "setting": "RL95-2", "result": "< 300", "unit": "nM"},
      {"measurement": "EC50", "setting": "A-498", "result": "300 to 1000", "unit": "nM"},
      {"measurement": "EC50", "setting": "5637", "result": "< 300", "unit": "nM"},
      {"measurement": "EC50", "setting": "BxPC-3", "result": "< 300", "unit": "nM"}
    ]}
  ]
}
